#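 Five concentrations, 48 hours, 96-well plates. Here, GI50 denotes the concentration required for 50% inhibition of growth. TGI denotes the concentration required for complete inhibition of growth.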
# Key:
# Experiment in all cases: growth of human tumour cells (NCI), 48 h
# SF-539 CNS = tested on: SF-539 CNS
# OVCAR-3 ovarian = tested on: OVCAR-3 ovarian
# IGROV1 ovarian = tested on: IGROV1 ovarian
# PC-3 prostate = tested on: PC-3 prostate
# OVCAR-8 ovarian = tested on: OVCAR-8 ovarian
# CCRF-CEM leukemia = tested on: CCRF-CEM leukemia
# TK-10 renal = tested on: TK-10 renal
# MCF7 breast = tested on: MCF7 breast
# SF-268 CNS = tested on: SF-268 CNS
# OVCAR-4 ovarian = tested on: OVCAR-4 ovarian
SMILES,GI50 (SF-539 CNS),TGI (SF-539 CNS),GI50 (OVCAR-3 ovarian),TGI (OVCAR-3 ovarian),GI50 (IGROV1 ovarian),TGI (IGROV1 ovarian),GI50 (PC-3 prostate),TGI (PC-3 prostate),GI50 (OVCAR-8 ovarian),TGI (OVCAR-8 ovarian),GI50 (CCRF-CEM leukemia),GI50 (TK-10 renal),TGI (TK-10 renal),GI50 (MCF7 breast),TGI (MCF7 breast),GI50 (SF-268 CNS),TGI (SF-268 CNS),GI50 (OVCAR-4 ovarian),TGI (OVCAR-4 ovarian),TGI (CCRF-CEM leukemia)
COc1cc2c3c(n(C)c(=O)c2cc1OC)-c1cc2c(cc1/C3=C\CCN)OCO2,0.215 µM,3.74 µM,0.564 µM,5.09 µM,0.882 µM,> 53.6 µM,0.324 µM,2.94 µM,0.169 µM,5.65 µM,< 0.0104 µM,1.17 µM,6.72 µM,0.094 µM,1.3 µM,0.167 µM,16.6 µM,0.792 µM,6.54 µM,
O=C(Nc1ccc(Cl)cc1)c1cccc(NC2=C(Cl)C(=O)N(Cc3ccccc3)C2=O)c1,4.18 µM,19.1 µM,8.04 µM,47 µM,2.61 µM,18.1 µM,9.12 µM,21.2 µM,10 µM,21.6 µM,2.73 µM,14.3 µM,30.7 µM,10.3 µM,42.3 µM,11.6 µM,30.1 µM,12.5 µM,34.8 µM,12.3 µM
O=C1OC(O)[C@@H]2[C@H]1[C@H]1CC[C@@H]2O1 (stereo partly drawn),> 100 µM,> 100 µM,32.8 µM,69.2 µM,> 100 µM,> 100 µM,> 100 µM,> 100 µM,> 100 µM,> 100 µM,> 100 µM,27.3 µM,66.2 µM,> 100 µM,> 100 µM,> 100 µM,> 100 µM,> 100 µM,> 100 µM,> 100 µM
Cn1cnc([N+](=O)[O-])c1S(=O)(=O)Oc1cccc2ccccc12,2.23 µM,5.59 µM,1.89 µM,3.96 µM,2.14 µM,5.09 µM,8.43 µM,44.4 µM,4.62 µM,18.7 µM,1.32 µM,1.59 µM,2.98 µM,3.56 µM,14.5 µM,7.06 µM,33.4 µM,2.03 µM,5.96 µM,9.3 µM
CCN(CC)c1ccc(-c2cc(-c3cc(OC)c(OC)c(OC)c3)nc(N3CCOCC3)c2C#N)cc1,1.36 µM,12.7 µM,3.19 µM,20.9 µM,2.83 µM,> 100 µM,1.27 µM,> 100 µM,1.91 µM,> 100 µM,0.611 µM,15.3 µM,> 100 µM,2.03 µM,17.7 µM,5.96 µM,> 100 µM,7.33 µM,> 100 µM,> 44.5 µM
COc1cc(NCc2ccc3oc(=O)c(-c4ccccc4)nc3c2)cc(OC)c1OC,,> 10 µM,,> 10 µM,,> 10 µM,,> 10 µM,,> 10 µM,,,> 10 µM,,> 10 µM,,> 10 µM,,> 10 µM,> 10 µM
Cc1ccc(S(=O)(=O)N/N=C/C2(c3ccccc3)c3ccccc3-c3ccccc32)cc1,,30.9 µM,,20.8 µM,,23.5 µM,,13.4 µM,,31.5 µM,,,98.5 µM,,29.6 µM,,52.7 µM,,24.3 µM,> 100 µM
CCCCCCCC(=O)SCC/C=C/[C@@H]1CC(=O)NCc2cc(ccn2)C2=N[C@@](C)(CS2)C(=O)N[C@@H](C(C)C)C(=O)O1,0.0203 µM,> 33.3 µM,0.0362 µM,0.362 µM,0.00956 µM,0.132 µM,0.0124 µM,> 33.3 µM,0.0109 µM,> 33.3 µM,0.0231 µM,< 0.0141 µM,0.173 µM,0.0377 µM,> 33.3 µM,0.0387 µM,> 9.59 µM,0.0535 µM,> 33.3 µM,> 33.3 µM
CN(C(=O)c1ccc(C(F)(F)F)cc1)c1ccc(Oc2ccc3c(c2)cc(C(=O)N2CCN(Cc4ccc(OC(F)F)cc4)CC2)n3C)nc1,> 100 µM,> 100 µM,11.3 µM,> 100 µM,> 100 µM,> 100 µM,2.24 µM,> 100 µM,1.71 µM,> 100 µM,,15.7 µM,> 96.1 µM,0.515 µM,43.4 µM,> 100 µM,> 100 µM,< 0.01 µM,> 49.7 µM,> 100 µM
Cc1cc(/C=C/c2ccc3cc(N(C)C)ccc3[n+]2C)c(C)n1-c1ccccc1,0.336 µM,2.47 µM,0.197 µM,1.42 µM,0.3 µM,3.92 µM,0.13 µM,0.765 µM,0.143 µM,0.76 µM,0.218 µM,0.301 µM,2.34 µM,0.169 µM,3.37 µM,0.215 µM,2.87 µM,0.0723 µM,5.23 µM,2.6 µM
O=c1c2sccc2n(CC2COc3ccccc3O2)c(=O)n1O (stereo not drawn),15.3 µM,> 100 µM,10.4 µM,44.9 µM,15.4 µM,> 100 µM,18.2 µM,> 100 µM,30.5 µM,> 100 µM,7 µM,30.9 µM,> 100 µM,5.17 µM,> 100 µM,13.6 µM,> 100 µM,13.9 µM,98.7 µM,94.4 µM
